Results: patent US7732504B2, “Functionalized photoinitiators” (Ciba Specialty Chemicals Corporation, priority 2004, dated 2010)

What was measured:
[1] = Solubility of the initiator in the blue offset printing ink formulation; assay type: physicochemical; design: key: good (+); acceptable (±); bad (−)
Experimental: (§1) A photocurable blue offset printing ink is prepared in accordance with the following formulation: […]
18.3 g of Ebecryl® 1608 (UCB, Belgium)
18.3 g of Ebecryl® 657 (polyester acrylate from UCB, Belgium)
20.0 g of Ebecryl® 220 (urethane acrylate from UCB, Belgium)
20.9 g of Ebecryl® 150 (bisphenol A derivative diacrylate from UCB, Belgium)
22.5 g Irgalit blue GLO (Cu-phthalocyanine pigment from Ciba Specialty Chemicals)
(§2) The above components are grounded down to a stock paste. Portions of the stock paste are mixed with the photoinitiators indicated in the table (% by weight on the stock paste). The solubility of the initiator in the formulation is rated as good (+), acceptable (±) or bad (−) and the results shown in Table 1.

[2] = Curing of a blue offset printing ink on white paper (maximum rate of passage, 80 W/cm mercury lamp); conditions: for curing rate (m/min) for surface cure / curing rate (m/min) for through cure: blue offset ink 1.5 g/m^2 on white paper, 80 W/cm mercury lamp
Experimental: Curing of a Blue Offset Printing Ink on White Paper
as §1, §2
The blue printing ink thus obtained is applied with 1.5 g/m^2 (˜1.5 μm thickness) on white paper using a Prüfbau laboratory printing equipment. The samples are exposed in an irradiation apparatus with a 80 W/cm mercury lamp (IST). The rate of passage of the sample through the irradiation apparatus is thereby increased continuously until adequate curing no longer occurs. The odor of the cured film is rated on a scale from 1 (odorless) to 3 (strong odor).

[3] = Solubility of the initiator in the blue flexo printing ink formulation; assay type: physicochemical; design: key: good (+); acceptable (±); bad (−); conditions: photoinitiator conc 6.0 % by weight on the stock paste
Experimental: (§3) A photocurable blue flexo printing ink is prepared in accordance with the following formulation: […]
26.9 g of IRR 440 (flexo basic resin)
19.0 g of OTA 480 (acrylated trifunctional resin, UCB, Belgium)
18.0 g of Ebecryl® 645 (modified diacrylate of Bisphenol A epoxy resin diluted with 25% of TPGDA, from UCB, Belgium)
13.0 g of HDDA (1,6-hexanediol diacrylate)
10.0 g of Ebecryl® 220 (urethane acrylate from UCB, Belgium)
1.3 g of Ebecryl® 168 (methacrylated acidic compound from UCB, Belgium)
0.7 g of DC 57 (Leveling agent)
11.1 g Irgalit blue GLO (Cu-phthalocyanine pigment from Ciba Specialty Chemicals)
as §2, with “2.” for “1.”

[4] = Curing of a blue flexo printing ink on a white polyethylene foil (maximum rate of passage, 120 W/cm mercury lamp); conditions: conc 6.0 %, blue flexo ink on corona treated white polyethylene foil
Experimental: Curing of a Blue Flexo Printing Ink on a White Polyethylene Foil
as §3
as §2, with “2.” for “1.”
The blue printing ink thus obtained is applied with […] 1.5 μm thickness on a corona treated white polyethylene foil using a Prüfbau laboratory printing equipment. The samples are exposed in an irradiation apparatus with a 120 W/cm mercury lamp (IST). The rate of passage of the sample through the irradiation apparatus is thereby increased continuously until adequate curing no longer occurs. The adhesion of the cured film to the foil is measure by the Tesa tape test.

[5] = photoinitiator conc 3.0 % by weight on the stock paste
[6] = photoinitiator conc 4.0 % by weight on the stock paste

Row | Compound | melting point [°C] | solubility [1, 5] | solubility [1, 6] | curing rate (m/min) for surface cure ([2]; conc 3.0 %) [m/min] | curing rate (m/min) for through cure ([2]; conc 3.0 %) [m/min] | curing rate (m/min) for surface cure ([2]; conc 4.0 %) [m/min] | curing rate (m/min) for through cure ([2]; conc 4.0 %) [m/min] | solubility [3] | curing rate (m/min) for surface cure [4] [m/min] | curing rate (m/min) for through cure [4] [m/min] | efficiency as a photoinitiator compared with the reference compounds ([2]; blue offset printing ink, versus Irgacure 369 and Irgacure 907)
1 | CCCC(CC)(C(=O)c1ccc(NCCO)cc1)N(C)C (stereo not shown) | 74 to 77 |  |  |  |  |  |  |  |  |  | 
2 | CC(C)(C(=O)c1ccc(NCCO)cc1)N1CCOCC1 [Example 6, 1-[4-(2-hydroxyethyamino)phenyl]-2-methyl-2-(morpholin-4-yl)-1-propanone] | 77 to 78 |  |  |  |  |  |  |  |  |  | 
3 | CCC(Cc1ccccc1)(C(=O)c1ccc(N2CCOCC2)cc1)N(C)C (stereo not shown) [Irgacure 369, 2-benzyl-2-(dimethylamino)-1-[4-(4-morpholinyl)phenyl]-1-butanone] |  | − | − | 70 | 110 | 90 | 130 | + | 170 | 90 | 
4 | CCC(Cc1ccccc1)(C(=O)c1ccc(NCCO)cc1)N(C)C (stereo not shown) [Example 1, 2-benzyl-1-[4-(2-hydroxyethylamino)phenyl]-2-dimethylamino-1-butanone] | 109 to 111 | + | + | 100 | 120 | 140 | 170 | + | 200 | 40 | more efficient as a photoinitiator than the reference compounds
5 | CSc1ccc(C(=O)C(C)(C)N2CCOCC2)cc1 [Irgacure 907] |  |  | + |  |  | 80 | 90 |  |  |  | 
